Results from PubChem BioAssay AID1645864 (Buhrlage Lab, Dana-Farber Cancer Institute and Novartis …, 2021).
The source made the active and inactive calls.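 The calls were made as follows: active = maximal inhibition of USP17 at or above 30% in the confirmation dose-response, a value not among the printed readouts; inactive = the rest.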

These molecules were tested against Ubiquitin carboxyl-terminal hydrolase 17-like protein 5 (Homo sapiens) (UniProt A8MUK1) (assay: ubiquitin-specific protease 17 inhibitors, concentration series, biochemical, verification of primary actives (AID 1645864)). Conditions: purified USP17, ubiquitin-rhodamine cleavage fluorescence, 3 h.
Ubiquitin carboxyl-terminal hydrolase 17-like protein 5 (Homo sapiens), sequence (A8MUK1 whole entry, looked up): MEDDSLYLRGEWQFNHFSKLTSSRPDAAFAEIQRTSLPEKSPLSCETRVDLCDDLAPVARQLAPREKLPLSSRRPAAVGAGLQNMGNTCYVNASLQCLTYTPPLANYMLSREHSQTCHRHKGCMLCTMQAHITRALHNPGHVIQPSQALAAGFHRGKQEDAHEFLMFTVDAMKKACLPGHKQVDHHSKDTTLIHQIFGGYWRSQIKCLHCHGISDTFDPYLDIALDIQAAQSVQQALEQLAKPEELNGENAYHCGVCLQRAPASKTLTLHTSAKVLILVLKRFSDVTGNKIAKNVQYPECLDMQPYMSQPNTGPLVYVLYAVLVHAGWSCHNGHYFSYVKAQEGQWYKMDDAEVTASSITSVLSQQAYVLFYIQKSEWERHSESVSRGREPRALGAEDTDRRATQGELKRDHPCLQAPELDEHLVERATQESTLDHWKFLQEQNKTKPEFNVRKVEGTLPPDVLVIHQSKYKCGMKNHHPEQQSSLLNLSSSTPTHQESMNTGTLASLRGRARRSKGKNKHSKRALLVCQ

SMILES | IC50
CNC(=O)c1c2n(c3ncccc13)CCN(S(=O)(=O)c1ccc(-c3ccccc3)cc1)C2 | 15 µM
O=C(Cc1ccccc1F)N1CCC2(CC1)CC1(CO2)Nc2ccccc2-n2cccc21 (stereo unspecified) | > 50 µM (inactive)
COc1ccc(CNC(=O)CN2C(=O)CC(c3ccccc3)=Nc3ccccc32)cc1 | 4.42 µM
O=S(=O)(c1cccc(F)c1)N1CCN(c2nnnn2-c2ccccc2)CC1 | 40.3 µM
COc1cccc(NC(=O)c2ccc(-c3csc(C)n3)cc2)c1 | > 50 µM (inactive)
O=C(Cc1cccnc1)Nc1ccc(N2CCN(C3CCCCC3)C2=O)nc1 | > 50 µM (inactive)
O=S(=O)(c1cccc(F)c1)N1CCc2nc3ccccc3n2CC1 | 3.12 µM
CCOC(=O)c1c(C)nc2n(Cc3ccccc3)c3ccccc3n12 | 23 µM
Cc1ccc(-c2ccc(N3CCOCC3)nn2)cc1S(=O)(=O)N1CCOCC1 | > 50 µM (inactive)
Cc1ccc(-n2c(-c3ccccc3)cn3c4c(=O)[nH]c(=O)n(C)c4nc23)cc1Cl | 0.226 µM
COCCNC(=O)Cn1c(=O)n(Cc2ccccc2)c(=O)c2c3c(sc21)CCC3 | 33.5 µM
Cc1nnc(NC(=O)C2CCN(c3ccc(S(N)(=O)=O)cc3[N+](=O)[O-])CC2)o1 | 29.5 µM
Clc1cncc(Oc2nc(-c3cccnc3)nc3ccccc23)c1 | 3.31 µM
O=C(Cn1c(=O)n(CC(=O)NC2CCCC2)c(=O)c2ccccc21)Nc1cc(Cl)ccc1Cl | 4.66 µM
Cc1ncncc1C(=O)N1CCCC(C)(c2ncc(Cc3cccc(F)c3)o2)C1 (stereo unspecified) | > 50 µM (inactive)
COc1cccc2c1NC(=O)C21CCN(C(=O)Nc2cccc3ccccc23)CC1 | > 50 µM (inactive)
O=C(Cn1cnc(-c2noc(-c3ccncc3)n2)c1)N1CCN(c2ccccc2F)CC1 | > 50 µM (inactive)
CC(=O)c1ccc(NC(=O)C[n+]2cc(-c3ccc(Cl)cc3)n3c2CCC3)cc1 | 32.1 µM
CCCn1c(=O)c(-c2ccc(C(=O)NCc3ccc(OC)cc3)cc2)nc2cccnc21 | 1.78 µM
O=C(CN(Cc1ccc(Cl)cc1)S(=O)(=O)c1ccc(Cl)cc1)N1CCOCC1 | > 50 µM (inactive)
N#Cc1ccc(Cn2nnc(-c3cccc(Cl)c3)n2)cc1 | > 50 µM (inactive)
CCC(=O)Nc1nc2cc(NC(=O)Nc3cc(C)cc(C)c3)ccc2s1 | 3.21 µM
Cc1ccc2nc(CNC(=O)c3ccccc3-c3nc(-c4ccc(F)cc4)no3)[nH]c2c1 | 27.2 µM
O=C(c1ccc2cc[nH]c2c1)N1CCC(Nc2cccnc2)C1 (stereo unspecified) | > 50 µM (inactive)

SMILES | IC50
Cc1ccc(-n2nc(C(=O)Nc3ccc(C)cn3)c3ncn(C)c(=O)c32)cc1 | 2.65 µM
CCOc1ccc(CCNC(=O)c2ccc3c(c2)N(CC)C(=O)c2ccccc2S3)cc1OCC | > 50 µM (inactive)
COC1C(O)=C2C(=O)O/C(C)=C/C=C/C=C/C=C/CC(c3ccccc3)NC(=O)/C=C/C=C/C=C\C=C\C2(C)C1O (stereo unspecified) | > 50 µM (inactive)
CCc1cccc(CC)c1NC(=O)COC(=O)c1cc2cccc(OC)c2oc1=O | 4.93 µM
COc1ccc(C(=O)Nc2nc3n(n2)C(c2ccccc2)CC(=O)N3)cc1 (stereo unspecified) | 10.2 µM
Cn1c2ccccc2c2ncn(Cc3ccc(F)cc3)c(=O)c21 | 43.9 µM
COc1ccc(C(=O)Nc2ccc(S(=O)(=O)N3CCCCC3)cc2)cc1 | > 50 µM (inactive)
Cc1cc(C)cc(N(CCC(=O)Nc2ccc(N3CCOCC3)cc2)S(=O)(=O)c2ccc(Cl)cc2)c1 | 18.2 µM
Cc1ccc(-c2nc(-c3cccs3)cc(C(F)(F)F)c2C#N)cc1 | > 50 µM (inactive)
N#Cc1c(-c2ccccc2)ccn(Cc2cccc(C(F)(F)F)c2)c1=O | 33.8 µM
CC1CCCN(S(=O)(=O)c2cc3cc(F)ccc3oc2=O)C1 (stereo unspecified) | 31.1 µM
CCN(CC)C(=O)c1sc(NC(=O)/C=C/c2c(F)cccc2Cl)c(C#N)c1C | 2.29 µM
N#Cc1cc2c(nc1SCC(=O)NCc1ccccc1)CCCC2 | > 50 µM (inactive)
CCC[C@H]1O[C@@H]2CC(=O)O[C@@H]2C2=C1C(=O)c1c(O)cccc1C2=O | 1.08 µM
Cc1ccc(NC(=O)c2cc(=O)n(C)c3c2c(=O)n(C)c(=O)n3C)c(C)c1 | > 50 µM (inactive)
COc1ccc(C2CC(=O)Nc3ccc4ccccc4c32)c(OC)c1OC (stereo unspecified) | 40.4 µM
Cc1ccc(-c2cnc(C3CC3)o2)cc1S(=O)(=O)Nc1ccc(F)c(Cl)c1 | 38.1 µM
Cc1nn(C)c2c1[C@@H](c1ccc(F)cc1)[C@H](NC(=O)c1ccccc1)C(=O)N2 | > 50 µM (inactive)
COc1c(Cl)ccc2c(=O)c3c(O)c4c5c(c3oc12)OCO[C@H]5[C@@H](OC)c1cc2c(c(O)c1-4)C(=O)N(C)[C@H](OC)[C@@H]2O | > 50 µM (inactive)
Cn1cc(CCNC(=O)c2cc3ccccc3[nH]2)c2cccnc21 | > 50 µM (inactive)
CC1CCN(c2cc(-n3cnc(C(=O)N4CCCCC4)c3)ncn2)CC1 | > 50 µM (inactive)
CCCc1nc2sc3c(NCCN4CCOCC4)ncnc3c2c2c1CCC2 | > 50 µM (inactive)
COc1ccccc1-c1nc(Cn2nnc(C(=O)Nc3cc(C)cc(C)c3)c2N)c(C)o1 | 22.3 µM
COc1cc2c(cc1OC)-c1cc(NCc3cc(OC)c(OC)c(OC)c3)nc(=O)n1CC2 | > 50 µM (inactive)

SMILES | IC50
O=C(/C=C/c1c(F)cccc1Cl)N1CCc2ccccc2C1 | 34.7 µM
O=C(Nc1ccc(N2CCOCC2)cc1)c1cc(=O)[nH]c2ccccc12 | 31 µM
Cc1sc(NC(=O)CN2CCc3ccccc3C2)nc1-c1ccc2c(c1)CCN2C(=O)C1CCCCC1 | > 50 µM (inactive)
COc1ccc(CCNC(=O)c2cc(C3CC3)nc3c2cnn3C(C)C)cc1 | > 50 µM (inactive)
CCCCCCCc1cc(O)cc(O)c1 | > 50 µM (inactive)
O=C(COc1nsnc1N1CCOCC1)Nc1ccc(F)c(F)c1 | > 50 µM (inactive)
COc1ccc(-c2cc3c(=O)n(CC(=O)Nc4ccccc4Cl)ccn3n2)cc1 | 5.49 µM
O=C(Cn1c(-c2ccccc2)ncc(C(=O)NC2CC2)c1=O)Nc1ccccc1 | 12.1 µM
COc1cccc(NC(=O)Cn2c(COc3ccccc3)nc3ccccc32)c1 | 4.83 µM
C[C@H](NC(=O)Cc1ccccc1F)c1nc2cc(-c3ccccc3F)ncn2n1 | > 50 µM (inactive)
O=C(Nc1cccc(Cl)c1)N1CCC(c2cc(-c3ccco3)n[nH]2)CC1 | 3.52 µM
CN1CCN(c2ccc3nc(-c4ccccc4)c(-c4ccccc4)nc3c2)CC1 | > 50 µM (inactive)
CC1(C(=O)NC2CCCC2)Cn2c(cc3ccccc32)C(=O)N1c1ccc(F)cc1 (stereo unspecified) | 30.9 µM
Cn1c(SCc2ccccc2)nnc1-c1csc(-c2ccccc2)n1 | 39 µM
Cc1cccc(-n2cnc(C(=O)NCc3ccc(F)cc3)c2)n1 | 22.8 µM
Cc1ccc(C)c(Nc2cc(C)nc3nc(-c4ccco4)nn23)c1 | > 50 µM (inactive)
COc1ccc(NS(=O)(=O)c2cc(NC(=O)CCc3nc4ccccc4s3)ccc2C)cc1 | 28.1 µM
CNS(=O)(=O)c1ccc(CNC(=O)c2cc(-c3ccc(C)cc3)no2)cc1 | 20.2 µM
COc1ccc(NC(=O)CC(=O)c2ccc([N+](=O)[O-])cc2)cc1S(=O)(=O)Nc1ccc(Br)cc1 | 22 µM
CCC1OC(O)(C(C)C(O)C(C)C2OC(=O)/C(C)=C/C(C)=CC(C)C(O)C(C)C/C(C)=C/C=C/C2OC)CC(OC(=O)/C=C/C(=O)NC2=C(O)CCC2=O)C1C (stereo unspecified) | > 50 µM (inactive)
Cc1ccc2c(Nc3ccc(CC(=O)O)cc3)c(C(=O)N3CCCC3)cnc2n1 | > 50 µM (inactive)
O=C(NC1CCN(Cc2ccccc2)CC1)c1[nH]nc2c1COc1ccccc1-2 | > 50 µM (inactive)
Cc1ccccc1NC(=O)Cn1c(N2CCOCC2)nc2cc(C)n(C)c2c1=O | 25.8 µM
O=C(COc1ccc(Cl)cc1Cl)Nc1ccc2[nH]c(=O)[nH]c2c1 | 7.41 µM

SMILES | IC50
O=C(c1ccc(COc2cccc3ccccc23)o1)N1CCC(Cc2ccccc2)CC1 | > 50 µM (inactive)
O=C(CSc1nnc(-c2ccc3c(c2)OCO3)n1-c1ccccc1)OCC(=O)c1ccccc1 | > 50 µM (inactive)
O=C(NCCc1ccccn1)c1cc(-c2ccc(Br)cc2)n[nH]1 | 17.9 µM
Cc1nc2cc(NC(=O)C3CN(C(=O)c4cnccn4)C3)ccc2s1 | > 50 µM (inactive)
CN(C(=O)c1cccc2cccnc12)c1nc2c(s1)CCc1occc1-2 | 24.9 µM
COc1ccc(-c2nc(SCC(=O)Nc3ccc(Cl)cc3F)n[nH]2)cc1 | 47.5 µM
COc1ccccc1CNC(=O)CCCn1c(=O)c2ccccc2n(CC(=O)N2CCN(c3ccccc3)CC2)c1=O | 29.2 µM
COc1ccc(C(=O)C2CC(=O)Nc3c2c(C)nn3-c2ccc(Br)cc2)cc1 (stereo unspecified) | 10 µM
Cc1cc(C)c2c(-n3cccc3)c(C(=O)NCCc3ccc(S(N)(=O)=O)cc3)sc2n1 | > 50 µM (inactive)
CCc1ccc(C(C)NC(=O)C2CCN(c3ccc4nncn4n3)CC2)cc1 (stereo unspecified) | > 50 µM (inactive)
O=C(COc1cccc(C(=O)NCc2ccccc2)c1)Nc1ccc(Oc2ccccc2)cc1 | 34.5 µM
CC(C(=O)NCc1ccc(F)cc1)n1cccc1C(=O)c1ccccc1 (stereo unspecified) | > 50 µM (inactive)
CCN1CCN(C(=O)CCCN(c2ccccc2)S(C)(=O)=O)CC1 | > 50 µM (inactive)
CC(C)Cc1nc2sc3c(NCCN4CCOCC4)ncnc3c2c2c1CCC2 | > 50 µM (inactive)
CSc1ccccc1C(=O)Nc1sc2c(c1C(N)=O)CCC(C)C2 (stereo unspecified) | 2.35 µM
COc1ccc(-c2cc(C(C)=O)c(C)n2CCC(=O)Nc2ccc(OC)cc2OC)cc1 | 40.7 µM
Cc1ccc2c(c1)N(C)C(=O)c1cc(NC(=O)c3ccc(F)cc3)ccc1O2 | 2.03 µM
CSc1ccc(CNC(=O)CC2CCN(S(=O)(=O)c3ccc(C)cc3)CC2)cc1 | 23.7 µM
COc1ccc(-c2cc(N3CCC(NC(=O)c4ccccc4)C3)n[nH]2)cc1 (stereo unspecified) | 20.8 µM
C=C(NC(=O)C(=C)NC(=O)c1csc(-c2ccc3c(n2)-c2csc(n2)-c2csc(n2)C(C(C)C2CO2)NC(=O)C(Cc2ccc(O)cc2)NC(=O)c2csc(n2)C(C(O)c2ccccc2)NC(=O)c2nc(sc2C)C(CC(N)=O)NC(=O)c2csc-3n2)n1)C(=O)O (stereo unspecified) | 26.7 µM
CCOc1ccc(-n2c(C)cc(/C=C(\C#N)c3nc4ccccc4[nH]3)c2C)cc1 | > 50 µM (inactive)
O=C(Cc1cccc2ccccc12)Nc1nc2ccc(F)cc2s1 | > 50 µM (inactive)
Cc1ccc(S(=O)(=O)N2CCC3(CC2)NC(=O)c2ccccc2N3)c(C)c1 | 17.9 µM
Cc1cc(NC(=O)c2[nH]nc3c2CCc2ccccc2-3)no1 | 3.28 µM
